A short description of this data set: Retention of glycopeptides on reversed phase C18 nanoLC-MS. It is filed as physicochemical. Particulars: difference between glycoform with and without fucose; RP C18 nanoLC, gradient 3.
Turning to “VVLHPNYSQVDIGLIK [tetra-antennary glycoform of VVLHPNYSQVDIGLIK]”, the “RRT difference introduced by fucose (RRT expressed as trx/trGlcNAc form)” value came out at 0.00035.

In the case of “VVLHPNYSQVDIGLIK [bi-antennary glycoform of VVLHPNYSQVDIGLIK]”, the “RRT difference introduced by fucose (RRT expressed as trx/trGlcNAc form)” value worked out at 0.00204.

For “VVLHPNYSQVDIGLIK [tri-antennary glycoform of VVLHPNYSQVDIGLIK]”, the “RRT difference introduced by fucose (RRT expressed as trx/trGlcNAc form)” value came out at 0.00096.

The record behind these values is publication PMC5581245 (Electrophoresis, 2017).
